Data on 2 compounds can be found in patent US10441626B2, “Microparticles comprising GNRH made by PGSS” (Ferring B.V., priority 2013, dated 2019).

Where a SMILES comes first, the peptide text is derived from it. [ ]: non-standard residue; d: D form. The star is where a group is joined. dPhe(4-NHCONH2) = NC(=O)Nc1ccc(C[C@@H](N)C(=O)O)cc1; Dihydroorotyl(S) = O=C1C[C@@H](C(=O)*)NC(=O)N1; dPhe(4-Cl) = N[C@H](Cc1ccc(Cl)cc1)C(=O)O; Phe(4-NH2) = Nc1ccc(C[C@H](N)C(=O)O)cc1; d2Nal = N[C@H](Cc1ccc2ccccc2c1)C(=O)O; Lys(iPr) = CC(C)NCCCC[C@H](N)C(=O)O; NMeY = CN[C@@H](Cc1ccc(O)cc1)C(=O)O; d3Pal = N[C@H](Cc1cccnc1)C(=O)O

For data set [1] the following is noted: human, in vivo; cited from earlier work.
A short description of data set [2]: Target plasma level calculated for pigs. Type of data set: in vivo, pig. The source says:
These very initial studies in this pig model are understood to represent proof of concept that formulations of the invention may be able to provide sustained release for up to three months, especially after IM administration, in a human model.

In another data set the test system is testosterone. As to the kind of experiment: Plasma level needed to prevent testosterone breakthrough (rat). The note with it: between doses. Type of data set: in vivo. As to the method:
In the rat, the mean plasma concentration level of degarelix which is necessary to ensure there is no testosterone breakthrough between doses is 6 ng/mL, and this value was therefore selected as the target level for the present work. In other words, if the mean plasma concentration of degarelix is 6 ng/mL or greater after administration of a given formula, this is a good indicator that the formulation would be effective (for the duration of the study).

For data set [3] the following is noted: in vivo.

In the case of `CC(=O)N[C@H](Cc1ccc2ccccc2c1)C(=O)N[C@H](Cc1ccc(Cl)cc1)C(=O)N[C@H](Cc1cccnc1)C(=O)N[C@@H](CO)C(=O)N(C)[C@@H](Cc1ccc(O)cc1)C(=O)N[C@H](CC(N)=O)C(=O)N[C@@H](CC(C)C)C(=O)N[C@@H](CCCCNC(C)C)C(=O)N1CCC[C@H]1C(=O)N[C@H](C)C(N)=O` [Abarelix] (Ac-[d2Nal][dPhe(4-Cl)][d3Pal]S[NMeY][dN]L[Lys(iPr)]P[dA]-NH2), in data set [1], the allergic reaction risk entry was “risk of serious allergic reactions, including anaphylaxis with hypotension and syncope”.
Consider `CC(=O)N[C@H](Cc1ccc2ccccc2c1)C(=O)N[C@H](Cc1ccc(Cl)cc1)C(=O)N[C@H](Cc1cccnc1)C(=O)N[C@@H](CO)C(=O)N[C@@H](Cc1ccc(NC(=O)[C@@H]2CC(=O)NC(=O)N2)cc1)C(=O)N[C@H](Cc1ccc(NC(N)=O)cc1)C(=O)N[C@@H](CC(C)C)C(=O)N[C@@H](CCCCNC(C)C)C(=O)N1CCC[C@H]1C(=O)N[C@H](C)C(N)=O` [degarelix, D-Alaninamide, N-acetyl-3-(2-naphthalenyl)-D-alanyl-4-chloro-D-phenylalanyl-3-(3-pyridinyl)-D-alanyl-L-seryl-4-[[[(4S)-hexahydro-2,6-dioxo-4-pyrimidinyl]carbonyl]amino]-L-phenylalanyl-4-[(aminocarbonyl)amino]-D-phenylalanyl-L leucyl-N6-(1-methylethyl)-L-lysyl-L-prolyl] (Ac-[d2Nal][dPhe(4-Cl)][d3Pal]S[Phe(4-NH2)](Dihydroorotyl(S))[dPhe(4-NHCONH2)]L[Lys(iPr)]P[dA]-NH2), for which the “target level of mean degarelix concentration” value in data set [2] is given as 8 ng/mL. The “mean plasma concentration necessary to ensure no testosterone breakthrough” value in the data set with testosterone turned out to be 6 ng/mL. In data set [3], the efficacy and tolerability entry was “effective and well-tolerated without evidence of systemic allergic reactions”.
